Laboratory results from US10501445B2, “Quinoxalinones and dihydroquinoxalinones as respiratory syncytial virus antiviral agents” (JANSSEN SCIENCES IRELAND UC, priority 2013, dated 2019).

What was measured:
rgRSV224 virus = assay: Antiviral activity: rgRSV224 (GFP-expressing RSV) replication in HeLa cells, GFP expression readout; assay type: cell-based; conditions: human respiratory syncytial virus, 72 h, read-out: WT activity EC50
Experimental: (§1) Black 96-well clear-bottom microtiter plates (Corning, Amsterdam, The Netherlands) were filled in duplicate using a customized robot system with serial 4-fold dilutions of compound in a final volume of 50 μl culture medium [RPMI medium without phenol red, 10% FBS, 0.04% gentamycin (50 mg/ml) and 0.5% DMSO]. Then, 100 μl of a HeLa cell suspension (5×10^4 cells/ml) in culture medium was added to each well followed by the addition of 50 μl rgRSV224 (MOI=0.02) virus in culture medium using a multidrop dispenser (Thermo Scientific, Erembodegem, Belgium). rgRSV224 virus is an engineered virus that includes an additional GFP gene (Hallak et al, 2000) and was in-licensed from the NIH (Bethesda, Md., USA). Medium, virus- and mock-infected controls were included in each test. Cells were incubated at 37° C. in a 5% CO2 atmosphere. Three days post-virus exposure, viral replication was quantified by measuring GFP expression in the cells by a MSM laser microscope (Tibotec, Beerse, Belgium). The EC50 was defined as the 50% inhibitory concentration for GFP expression. In parallel, compounds were incubated for three days in a set of white 96-well microtitier plates (Corning) and the cytotoxicity of compounds in HeLa cells was determined by measuring the ATP content of the cells using the ATPlite kit (PerkinElmer, Zaventem, Belgium) according to the manufacturer's instructions. The CC50 was defined as the 50% concentration for cytotoxicity.

in vitro = assay type: cell-based; conditions: human
Experimental: as §1

| SMILES | EC50 (rgRSV224 virus) [µM] | CC50 at 3 days (in vitro) [µM] |
| --- | --- | --- |
| O=c1cnc2ccc(Br)cc2n1Cc1nc2cc(F)ccc2n1CCCCF [Compound P1, 7-bromo-1-{[5-fluoro-1-(4-fluorobutyl)-1H-benzimidazol-2-yl]methyl}quinoxalin-2(1H)-one] | 0.071 | 87 |
| O=c1cnc2ccc(-c3ccc(CCN4CCOCC4)cc3)cc2n1Cc1nc2cc(F)ccc2n1CCCCF [Compound P2, 1-((5-fluoro-1-(4-fluorobutyl)-1H-benzo[d]imidazol-2-yl)methyl)-7-(4-(2-morpholinoethyl)phenyl)quinoxalin-2(1H)-one] | > 10.1 | 94 |
| O=c1cnc2ccc(-c3ccc(C(F)(F)F)cc3)cc2n1Cc1nc2cc(F)ccc2n1CCCCF [Compound P3, 1-((5-fluoro-1-(4-fluorobutyl)-1H-benzo[d]imidazol-2-yl)methyl)-7-(4-(trifluoromethyl)phenyl)quinoxalin-2(1H)-one] | > 10.1 | 42.4 |
| Cc1nc(C)c(-c2ccc3ncc(=O)n(Cc4nc5cc(F)ccc5n4CCCCF)c3c2)s1 [Compound P4, 7-(2,4-dimethylthiazol-5-yl)-1-((5-fluoro-1-(4-fluorobutyl)-1H-benzo[d]imidazol-2-yl)methyl)quinoxalin-2(1H)-one] | 4.78 | 31.1 |
| Cn1nc(C(F)(F)F)cc1-c1ccc2ncc(=O)n(Cc3nc4cc(F)ccc4n3CCCCF)c2c1 [Compound P5, 1-((5-fluoro-1-(4-fluorobutyl)-1H-benzo[d]imidazol-2-yl)methyl)-7-(1-methyl-3-(trifluoromethyl)-1H-pyrazol-5-yl)quinoxalin-2(1H)-one] | 4.89 | 53.3 |
| O=c1cnc2ccc(-c3ccccc3)cc2n1Cc1nc2cc(F)ccc2n1CCCCF [Compound P6, 1-((5-fluoro-1-(4-fluorobutyl)-1H-benzo[d]imidazol-2-yl)methyl)-7-phenylquinoxalin-2(1H)-one] | 3.94 | 42.8 |
| CN(C)Cc1cccc(-c2ccc3ncc(=O)n(Cc4nc5cc(F)ccc5n4CCCCF)c3c2)c1 [Compound P7, 7-(3-((dimethylamino)methyl)phenyl)-1-((5-fluoro-1-(4-fluorobutyl)-1H-benzo[d]imidazol-2-yl)methyl)quinoxalin-2(1H)-one] | 0.099 | 17.6 |
| O=c1cnc2ccc(-c3ccncc3)cc2n1Cc1nc2cc(F)ccc2n1CCCCF [Compound P8, 1-((5-fluoro-1-(4-fluorobutyl)-1H-benzo[d]imidazol-2-yl)methyl)-7-(pyridin-4-yl)quinoxalin-2(1H)-one] | 2.69 | 86.8 |
| O=c1cnc2ccc(F)cc2n1Cc1nc2cc(F)ccc2n1CCCCF [Compound P9, 7-fluoro-1-((5-fluoro-1-(4-fluorobutyl)-1H-benzo[d]imidazol-2-yl)methyl)quinoxalin-2(1H)-one] | 0.27 | > 100 |
| O=c1cnc2cc(F)ccc2n1Cc1nc2cc(F)ccc2n1CCCCF [Compound P10, 6-fluoro-1-((5-fluoro-1-(4-fluorobutyl)-1H-benzo[d]imidazol-2-yl)methyl)quinoxalin-2(1H)-one] | 1.04 | > 100 |
| O=c1cnc2cnccc2n1Cc1nc2cc(F)ccc2n1CCCCF [Compound P11, 1-((5-fluoro-1-(4-fluorobutyl)-1H-benzo[d]imidazol-2-yl)methyl)pyrido[3,4-b]pyrazin-2(1H)-one] | 7.21 | > 100 |
| O=C1CN(C2CC2)c2ccncc2N1Cc1nc2cc(F)ccc2n1CCCCF [Compound P12, 1-cyclopropyl-4-((5-fluoro-1-(4-fluorobutyl)-1H-benzo[d]imidazol-2-yl)methyl)-1,2-dihydropyrido[3,4-b]pyrazin-3(4H)-one] | 0.011 | 50.1 |
| CC(C)CCn1c(Cn2c(=O)cnc3ccc(Br)cc32)nc2nc(Cl)ccc21 [Compound P13, 7-bromo-1-((5-chloro-1-isopentyl-1H-imidazo[4,5-b]pyridin-2-yl)methyl) quinoxalin-2(1H)-one] | 0.004 | 46.5 |
| CC(C)CCn1c(Cn2c(=O)cnc3ccc(-c4ccncc4)cc32)nc2nc(Cl)ccc21 [Compound P14, 1-((5-chloro-1-isopentyl-1H-imidazo[4,5-b]pyridin-2-yl)methyl)-7-(pyridin-4-yl)quinoxalin-2(1H)-one] | 0.061 | 14.7 |
| CC(C)CCn1c(Cn2c(=O)cnc3ccc(-c4ccsc4)cc32)nc2nc(Cl)ccc21 [Compound P15, 1-((5-chloro-1-isopentyl-1H-imidazo[4,5-b]pyridin-2-yl)methyl)-7-(thiophen-3-yl)-quinoxalin-2(1H)-one] | 0.34 | 27.6 |
| CC(C)CCn1c(Cn2c(=O)cnc3ccc(-c4cccn4C(=O)OC(C)(C)C)cc32)nc2nc(Cl)ccc21 [Compound P16, tert-butyl 2-(4-((5-chloro-1-isopentyl-1H-imidazo[4,5-b]pyridin-2-yl)methyl)-3-oxo-3,4-dihydroquinoxalin-6-yl)-1H-pyrrole-1-carboxylate] | 0.51 | 42.5 |
| CC(C)CCn1c(Cn2c(=O)cnc3ccc(-c4cncnc4)cc32)nc2nc(Cl)ccc21 [Compound P17, 1-((5-chloro-1-isopentyl-1H-imidazo[4,5-b]pyridin-2-yl)methyl)-7-(pyrimidin-5-yl)quinoxalin-2(1H)-one] | 0.48 | > 100 |
| CC(C)CCn1c(Cn2c(=O)cnc3ccc(-c4ccc(F)cc4)cc32)nc2nc(Cl)ccc21 [Compound P18, 1-((5-chloro-1-isopentyl-1H-imidazo[4,5-b]pyridin-2-yl)methyl)-7-(4-fluorophenyl)quinoxalin-2(1H)-one] | 3.33 | 51.5 |
| CC(C)CCn1c(Cn2c(=O)cnc3ccc(F)cc32)nc2nc(Cl)ccc21 [Compound P19, 1-((5-chloro-1-isopentyl-1H-imidazo[4,5-b]pyridin-2-yl)methyl)-7-fluoroquinoxalin-2(1H)-one] | 0.042 | > 100 |
| CC(C)CCn1c(Cn2c(=O)cnc3cc(F)ccc32)nc2nc(Cl)ccc21 [Compound P20, 1-((5-chloro-1-isopentyl-1H-imidazo[4,5-b]pyridin-2-yl)methyl)-6-fluoroquinoxalin-2(1H)-one] | 0.032 | > 100 |
| CC(C)CCn1c(Cn2c(=O)cnc3cnccc32)nc2nc(Cl)ccc21 [Compound P21, 1-((5-chloro-1-isopentyl-1H-imidazo[4,5-b]pyridin-2-yl)methyl)pyrido[4,3-b]pyrazin-2(1H)-one] | > 10.1 | > 100 |
| CC(C)CCn1c(CN2C(=O)CN(C3CC3)c3ccncc32)nc2nc(Cl)ccc21 [Compound P22, 4-((5-chloro-1-isopentyl-1H-imidazo[4,5-b]pyridin-2-yl)methyl)-1-cyclopropyl-1,2-dihydropyrido[3,4-b]pyrazin-3(4H)-one] | 0.12 | 60.7 |
| CS(=O)(=O)CCCn1c(CN2C(=O)CN(C3CC3)c3ccncc32)nc2cc(Br)ccc21 [Compound P23, 4-((5-bromo-1-(3-(methylsulfonyl)propyl)-1H-benzo[d]imidazol-2-yl)methyl)-1-cyclopropyl-1,2-dihydropyrido[3,4-b]pyrazin-3(4H)-one] | 0.0015 | 71.3 |
| CS(=O)(=O)CCCn1c(Cn2c(=O)cnc3ccc(F)cc32)nc2cc(Br)ccc21 [Compound P24, 1-((5-bromo-1-(3-(methylsulfonyl)propyl)-1H-benzo[d]imidazol-2-yl)methyl)-7-fluoroquinoxalin-2(1H)-one] | 0.004 | 78.5 |
| CS(=O)(=O)CCCn1c(Cn2c(=O)cnc3cc(F)ccc32)nc2cc(Br)ccc21 [Compound P25, 1-((5-bromo-1-(3-(methylsulfonyl)propyl)-1H-benzo[d]imidazol-2-yl)methyl)-6-fluoroquinoxalin-2(1H)-one] | 0.0065 | 64 |
| CS(=O)(=O)CCCn1c(CN2C(=O)CN(C3CC3)c3ccncc32)nc2cc(Cl)ccc21 [Compound P26, 4-((5-chloro-1-(3-(methylsulfonyl)propyl)-1H-benzo[d]imidazol-2-yl)-methyl)-1-cyclopropyl-1,2-dihydropyrido[3,4-b]pyrazin-3(4H)-one] | 0.015 | > 100 |
| O=C1CN(C2CC2)c2ccncc2N1Cc1nc2cc(Cl)ccc2n1CCCC(F)(F)F [Compound P27, 4-((5-chloro-1-(4,4,4-trifluorobutyl)-1H-benzo[d]imidazol-2-yl)methyl)-1-cyclopropyl-1,2-dihydropyrido[3,4-b]pyrazin-3(4H)-one] | 0.029 | > 100 |
| CS(=O)(=O)CCCn1c(Cn2c(=O)cnc3ccc(F)cc32)cc2cc(Br)ccc21 [Compound P28, 1-((5-bromo-1-(3-(methylsulfonyl)propyl)-1H-indol-2-yl)methyl)-7-fluoroquinoxalin-2(1H)-one] | 0.018 |  |
| CS(=O)(=O)CCCn1c(Cn2c(=O)cnc3cc(F)ccc32)cc2cc(Br)ccc21 [Compound P29, 1-((5-bromo-1-(3-(methylsulfonyl)propyl)-1H-indol-2-yl)methyl)-6-fluoroquinoxalin-2(1H)-one] | 0.055 | 9.73 |
